Experiments:
Experiment in all cases: KinomeScan
Assay type in all cases: binding
Settings in all cases: read-out: % Ctrl @ 10000 nM
DYRK1B = target: T1, DYRK1B (Homo sapiens, UniProt Q9Y463)
T1 construct: purchased Ambit Biosciences Corp (KinomeScan); host or cells: T7 phage in E. coli host derived from BL21
Summary of the method: (§1)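 In this phage-display binding screen, compound competes with immobilized ligand for the kinase fusion, and bead-bound phage, eluted after washing, is titered by qPCR.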

RIOK3 = target: T2, RIOK3 (Homo sapiens, UniProt O14730)
T2 construct: host or cells: E. coli host derived from BL21, T7 phage display
Summary of the method: as §1

KIT(V559D, V654A) = target: T3, KIT(V559D, V654A) (Homo sapiens, UniProt P10721, V559D/V654A)
T3 construct: host or cells: T7 phage grown in E. coli host derived from BL21
Summary of the method: as §1

CDK3 = target: T4, CDK3 (Homo sapiens, UniProt Q00526)
T4 construct: host or cells: T7 phage in E. coli host derived from BL21
Summary of the method: as §1

DRAK1 = target: T5, DRAK1 (Homo sapiens, UniProt Q9UEE5)
T5 construct: purchased Ambit Biosciences Corp (KinomeScan); host or cells: T7 phage in E. coli host derived from BL21
Summary of the method: as §1

NLK = target: T6, NLK (Homo sapiens, UniProt Q9UBE8)
T6 construct: host or cells: E. coli host derived from BL21, infected with T7 phage
Summary of the method: as §1

LIMK2 = target: T7, LIMK2 (Homo sapiens, UniProt P53671)
T7 construct: host or cells: T7 phage grown in E. coli host derived from BL21
Summary of the method: as §1

BRSK2 = target: T8, BRSK2 (Homo sapiens, UniProt Q8IWQ3)
T8 construct: host or cells: E. coli host derived from BL21
Summary of the method: as §1

[1] = target: T9, RPS6KA1(Kin.Dom.-2-C-terminal) (Homo sapiens, UniProt Q15418)
T9 construct: RPS6KA1(Kin.Dom.-2-C-terminal); host or cells: E. coli host derived from BL21, T7 phage display
Summary of the method: as §1

CDK8 = target: T10, CDK8 (Homo sapiens, UniProt P49336)
T10 construct: host or cells: T7 phage in E. coli host derived from BL21
Summary of the method: as §1

WEE1 = target: T11, WEE1 (Homo sapiens, UniProt P30291)
T11 construct: host or cells: E. coli host derived from BL21, T7 phage
Summary of the method: as §1

GCN2(Kin.Dom.2.S808G) = target: T12, GCN2(Kin.Dom.2.S808G) (Homo sapiens, UniProt Q9P2K8, S808G)
T12 construct: GCN2(KIN.DOM.2, S808G); host or cells: T7 phage in E. coli host derived from BL21
Summary of the method: as §1

ACVRL1 = target: T13, ACVRL1 (Homo sapiens, UniProt P37023)
T13 construct: host or cells: E. coli (BL21-derived), T7 phage lysate
Summary of the method: as §1

EGFR(E746-A750del) = target: T14, EGFR(E746-A750del) (Homo sapiens, UniProt P00533, DEL746-750)
T14 construct: purchased Ambit Biosciences Corp (KinomeScan); host or cells: T7 phage in E. coli host derived from BL21
Summary of the method: as §1

[2] = target: T15, JAK3(JH1domain- catalytic) (Homo sapiens, UniProt P52333)
T15 construct: JAK3(JH1domain- catalytic); host or cells: T7 phage grown in E. coli host derived from BL21
Summary of the method: as §1

LATS1 = target: T16, LATS1 (Homo sapiens, UniProt O95835)
T16 construct: host or cells: T7 phage grown in E. coli host derived from BL21
Summary of the method: as §1

STK33 = target: T17, STK33 (Homo sapiens, UniProt Q9BYT3)
T17 construct: host or cells: T7 phage grown in E. coli (BL21-derived)
Summary of the method: as §1

IKK-alpha = target: T18, IKK-alpha (Homo sapiens, UniProt O15111)
T18 construct: host or cells: T7 phage grown in E. coli host derived from BL21
Summary of the method: as §1

MRCKA = target: T19, MRCKA (Homo sapiens, UniProt Q5VT25)
T19 construct: host or cells: T7 phage grown in E. coli host derived from BL21
Summary of the method: as §1

NEK7 = target: T20, NEK7 (Homo sapiens, UniProt Q8TDX7)
T20 construct: host or cells: T7 phage grown in E. coli host derived from BL21
Summary of the method: as §1

JNK3 = target: T21, JNK3 (Homo sapiens, UniProt P53779)
T21 construct: host or cells: T7 phage grown in E. coli host derived from BL21
Summary of the method: as §1

CSNK1D = target: T22, CSNK1D (Homo sapiens, UniProt P48730)
T22 construct: host or cells: T7 phage in E. coli host derived from BL21
Summary of the method: as §1

FGFR4 = target: T23, FGFR4 (Homo sapiens, UniProt P22455)
T23 construct: host or cells: T7 phage in E. coli host derived from BL21
Summary of the method: as §1

TIE1 = target: T24, TIE1 (Homo sapiens, UniProt P35590)
T24 construct: host or cells: T7 phage grown in E. coli (BL21-derived)
Summary of the method: as §1

PLK4 = target: T25, PLK4 (Homo sapiens, UniProt O00444)
T25 construct: host or cells: T7 phage in E. coli host derived from BL21
Summary of the method: as §1

STK16 = target: T26, STK16 (Homo sapiens, UniProt O75716)
T26 construct: host or cells: T7 phage grown in E. coli (BL21-derived)
Summary of the method: as §1

CLK2 = target: T27, CLK2 (Homo sapiens, UniProt P49760)
T27 construct: host or cells: T7 phage in E. coli host derived from BL21
Summary of the method: as §1

RET(V804M) = target: T28, RET(V804M) (Homo sapiens, UniProt P07949, V804M)
T28 construct: host or cells: E. coli host derived from BL21, T7 phage display
Summary of the method: as §1

[3] = target: T29, RPS6KA4(Kin.Dom.-2-C-terminal) (Homo sapiens, UniProt O75676)
T29 construct: RPS6KA4(KIN.DOM.2); host or cells: E. coli host derived from BL21, T7 phage display
Summary of the method: as §1

CHEK2 = target: T30, CHEK2 (Homo sapiens, UniProt O96017)
T30 construct: host or cells: T7 phage in E. coli host derived from BL21
Summary of the method: as §1

CAMK2D = target: T31, CAMK2D (Homo sapiens, UniProt Q13557)
T31 construct: host or cells: E. coli host derived from BL21
Summary of the method: as §1

T28 sequence (P07949 29-1114 V804M): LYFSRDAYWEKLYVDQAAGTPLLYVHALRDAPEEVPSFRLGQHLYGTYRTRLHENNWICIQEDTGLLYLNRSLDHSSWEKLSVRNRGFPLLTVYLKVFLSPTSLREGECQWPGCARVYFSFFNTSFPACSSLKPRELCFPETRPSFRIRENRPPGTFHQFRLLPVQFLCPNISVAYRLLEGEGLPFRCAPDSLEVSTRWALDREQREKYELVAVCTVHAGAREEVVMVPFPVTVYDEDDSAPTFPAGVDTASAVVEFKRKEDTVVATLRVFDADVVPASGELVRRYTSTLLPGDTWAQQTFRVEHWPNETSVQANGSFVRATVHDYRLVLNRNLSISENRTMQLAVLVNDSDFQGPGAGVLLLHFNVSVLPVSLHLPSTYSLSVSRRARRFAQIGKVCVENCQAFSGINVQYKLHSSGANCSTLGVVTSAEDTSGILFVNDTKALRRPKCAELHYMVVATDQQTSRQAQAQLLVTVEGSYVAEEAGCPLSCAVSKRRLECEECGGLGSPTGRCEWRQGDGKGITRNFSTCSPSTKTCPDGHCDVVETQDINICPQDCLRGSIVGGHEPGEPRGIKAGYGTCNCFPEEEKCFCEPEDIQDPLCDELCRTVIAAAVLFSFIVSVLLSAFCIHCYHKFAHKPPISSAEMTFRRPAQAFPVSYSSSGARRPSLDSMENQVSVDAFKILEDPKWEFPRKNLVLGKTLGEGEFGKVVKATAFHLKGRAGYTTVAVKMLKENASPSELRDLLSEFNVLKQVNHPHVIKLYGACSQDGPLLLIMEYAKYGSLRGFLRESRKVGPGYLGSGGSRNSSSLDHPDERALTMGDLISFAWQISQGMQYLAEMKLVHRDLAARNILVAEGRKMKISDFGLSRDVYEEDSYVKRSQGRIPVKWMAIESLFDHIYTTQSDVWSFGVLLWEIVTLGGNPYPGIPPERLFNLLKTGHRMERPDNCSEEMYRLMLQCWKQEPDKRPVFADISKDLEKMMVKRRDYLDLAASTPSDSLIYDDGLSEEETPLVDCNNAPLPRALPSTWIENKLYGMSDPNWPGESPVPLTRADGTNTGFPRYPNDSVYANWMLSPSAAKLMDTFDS
T10 sequence (P49336 whole entry): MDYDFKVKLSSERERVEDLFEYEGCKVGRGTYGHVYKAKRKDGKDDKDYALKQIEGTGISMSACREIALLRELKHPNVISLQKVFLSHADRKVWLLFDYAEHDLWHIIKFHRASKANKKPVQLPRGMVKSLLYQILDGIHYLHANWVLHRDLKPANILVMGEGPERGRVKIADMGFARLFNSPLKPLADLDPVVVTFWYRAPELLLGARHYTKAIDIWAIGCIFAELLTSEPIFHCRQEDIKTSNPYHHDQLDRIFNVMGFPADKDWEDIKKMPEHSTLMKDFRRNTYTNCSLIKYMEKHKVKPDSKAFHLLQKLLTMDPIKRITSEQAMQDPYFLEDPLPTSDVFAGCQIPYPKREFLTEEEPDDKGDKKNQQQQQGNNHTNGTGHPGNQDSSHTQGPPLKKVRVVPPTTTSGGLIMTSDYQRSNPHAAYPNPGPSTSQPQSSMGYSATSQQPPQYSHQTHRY
T13 sequence (P37023 22-503): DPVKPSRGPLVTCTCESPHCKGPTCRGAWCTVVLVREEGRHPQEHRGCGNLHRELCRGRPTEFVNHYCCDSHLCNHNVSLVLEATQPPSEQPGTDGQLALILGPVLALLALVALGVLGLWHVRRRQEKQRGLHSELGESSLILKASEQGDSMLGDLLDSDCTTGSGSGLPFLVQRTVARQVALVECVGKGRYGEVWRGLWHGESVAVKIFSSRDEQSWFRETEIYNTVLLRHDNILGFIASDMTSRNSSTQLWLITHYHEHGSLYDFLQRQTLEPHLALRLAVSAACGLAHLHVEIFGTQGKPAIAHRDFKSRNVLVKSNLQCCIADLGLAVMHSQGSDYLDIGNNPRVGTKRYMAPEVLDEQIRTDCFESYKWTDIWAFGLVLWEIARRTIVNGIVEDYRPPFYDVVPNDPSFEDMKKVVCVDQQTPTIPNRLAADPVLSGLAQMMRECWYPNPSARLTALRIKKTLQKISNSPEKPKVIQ
T29 sequence (O75676 411-674 limits assumed): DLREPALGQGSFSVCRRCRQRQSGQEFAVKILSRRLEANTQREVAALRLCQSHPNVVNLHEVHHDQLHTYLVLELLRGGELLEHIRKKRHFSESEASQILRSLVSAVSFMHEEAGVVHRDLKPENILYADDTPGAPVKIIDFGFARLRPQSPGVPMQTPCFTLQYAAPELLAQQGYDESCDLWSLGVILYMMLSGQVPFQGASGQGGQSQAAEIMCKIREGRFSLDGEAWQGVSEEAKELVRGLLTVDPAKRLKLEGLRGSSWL
T16 sequence (O95835 whole entry): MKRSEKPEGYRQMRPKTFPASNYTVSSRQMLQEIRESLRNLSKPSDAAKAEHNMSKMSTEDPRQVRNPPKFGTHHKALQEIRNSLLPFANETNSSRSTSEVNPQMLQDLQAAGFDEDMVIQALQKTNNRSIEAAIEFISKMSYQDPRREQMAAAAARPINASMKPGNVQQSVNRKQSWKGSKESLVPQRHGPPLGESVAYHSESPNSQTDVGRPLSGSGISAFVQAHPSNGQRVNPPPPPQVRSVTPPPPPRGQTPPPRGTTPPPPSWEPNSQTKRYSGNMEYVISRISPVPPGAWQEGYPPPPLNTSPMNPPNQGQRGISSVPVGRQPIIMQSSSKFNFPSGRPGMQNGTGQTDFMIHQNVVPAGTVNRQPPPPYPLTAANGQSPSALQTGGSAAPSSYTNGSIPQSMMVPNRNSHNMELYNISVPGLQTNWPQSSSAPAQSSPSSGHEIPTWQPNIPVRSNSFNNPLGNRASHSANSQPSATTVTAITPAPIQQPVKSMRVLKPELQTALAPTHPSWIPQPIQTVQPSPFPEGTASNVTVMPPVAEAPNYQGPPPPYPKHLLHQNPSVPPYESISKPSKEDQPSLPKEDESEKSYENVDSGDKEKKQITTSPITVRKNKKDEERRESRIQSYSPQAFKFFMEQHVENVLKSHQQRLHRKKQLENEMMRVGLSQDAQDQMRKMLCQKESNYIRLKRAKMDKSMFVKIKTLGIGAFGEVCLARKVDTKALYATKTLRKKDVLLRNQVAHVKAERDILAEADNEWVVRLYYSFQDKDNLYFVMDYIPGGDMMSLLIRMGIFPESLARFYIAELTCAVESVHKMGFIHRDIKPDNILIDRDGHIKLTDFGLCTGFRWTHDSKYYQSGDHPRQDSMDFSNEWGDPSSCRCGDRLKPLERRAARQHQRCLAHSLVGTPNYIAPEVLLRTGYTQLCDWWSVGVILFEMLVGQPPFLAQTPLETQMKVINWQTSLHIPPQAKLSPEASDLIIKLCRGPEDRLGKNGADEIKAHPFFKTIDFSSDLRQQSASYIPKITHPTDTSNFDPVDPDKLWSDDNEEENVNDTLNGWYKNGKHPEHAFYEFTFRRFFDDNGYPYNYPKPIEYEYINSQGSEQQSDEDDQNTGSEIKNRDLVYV
T15 sequence (P52333 822-1111 limits assumed): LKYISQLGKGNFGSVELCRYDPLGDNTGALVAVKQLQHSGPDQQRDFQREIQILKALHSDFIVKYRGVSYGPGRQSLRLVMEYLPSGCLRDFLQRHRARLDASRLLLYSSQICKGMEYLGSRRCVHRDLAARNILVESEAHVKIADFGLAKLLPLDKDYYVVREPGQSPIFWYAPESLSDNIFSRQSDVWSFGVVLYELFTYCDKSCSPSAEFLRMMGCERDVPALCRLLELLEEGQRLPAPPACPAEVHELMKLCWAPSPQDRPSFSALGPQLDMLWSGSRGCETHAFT
T18 sequence (O15111 whole entry): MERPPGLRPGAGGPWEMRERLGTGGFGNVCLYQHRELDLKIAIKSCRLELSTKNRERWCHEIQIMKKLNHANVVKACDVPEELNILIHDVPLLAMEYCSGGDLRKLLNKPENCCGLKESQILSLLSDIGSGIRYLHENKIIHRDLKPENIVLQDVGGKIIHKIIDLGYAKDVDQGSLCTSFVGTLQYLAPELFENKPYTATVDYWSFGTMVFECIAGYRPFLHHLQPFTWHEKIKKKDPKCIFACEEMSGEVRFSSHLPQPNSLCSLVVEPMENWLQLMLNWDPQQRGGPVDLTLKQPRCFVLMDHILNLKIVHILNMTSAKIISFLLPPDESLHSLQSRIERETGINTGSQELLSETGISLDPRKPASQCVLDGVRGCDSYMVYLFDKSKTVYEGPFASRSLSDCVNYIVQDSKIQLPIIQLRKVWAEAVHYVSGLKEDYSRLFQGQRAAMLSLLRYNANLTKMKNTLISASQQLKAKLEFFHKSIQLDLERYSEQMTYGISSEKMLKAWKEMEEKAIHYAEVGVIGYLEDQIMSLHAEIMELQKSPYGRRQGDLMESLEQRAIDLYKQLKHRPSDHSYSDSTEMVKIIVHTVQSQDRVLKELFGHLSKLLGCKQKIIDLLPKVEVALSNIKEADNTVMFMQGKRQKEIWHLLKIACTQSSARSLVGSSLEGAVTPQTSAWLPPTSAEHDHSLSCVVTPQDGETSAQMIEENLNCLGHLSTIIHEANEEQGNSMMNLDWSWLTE
T2 sequence (O14730 whole entry): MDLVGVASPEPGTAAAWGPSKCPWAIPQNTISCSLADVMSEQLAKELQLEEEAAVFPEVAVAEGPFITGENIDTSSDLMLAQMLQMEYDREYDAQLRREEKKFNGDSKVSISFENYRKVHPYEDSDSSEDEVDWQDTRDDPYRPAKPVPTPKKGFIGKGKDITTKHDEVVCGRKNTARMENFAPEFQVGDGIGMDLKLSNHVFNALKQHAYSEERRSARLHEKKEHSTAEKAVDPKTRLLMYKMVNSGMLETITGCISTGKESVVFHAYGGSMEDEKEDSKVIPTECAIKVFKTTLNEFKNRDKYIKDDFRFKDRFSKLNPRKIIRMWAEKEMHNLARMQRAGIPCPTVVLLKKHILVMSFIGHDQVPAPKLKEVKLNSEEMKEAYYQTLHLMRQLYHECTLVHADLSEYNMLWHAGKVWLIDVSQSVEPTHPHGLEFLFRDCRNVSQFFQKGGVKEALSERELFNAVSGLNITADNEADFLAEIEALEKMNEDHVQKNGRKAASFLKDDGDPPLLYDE

## C#Cc1cccc(Nc2ncnc3cc(OC)c(OCCCN4CCOCC4)cc23)c1 [NRC-2694, N-(3-ethynylphenyl)-7-methoxy-6-[3-(4-morpholinyl)propoxy]-4-quinazolinamine]
DYRK1B
  remaining binding at 10 µM: 66%
RIOK3
  remaining binding at 10 µM: 37%
KIT(V559D, V654A)
  remaining binding at 10 µM: 47%
CDK3
  remaining binding at 10 µM: 91%
DRAK1
  remaining binding at 10 µM: 51%
NLK
  remaining binding at 10 µM: 55%
LIMK2
  remaining binding at 10 µM: 100%
BRSK2
  remaining binding at 10 µM: 33%
[1]
  remaining binding at 10 µM: 49%
CDK8
  remaining binding at 10 µM: 100%
WEE1
  remaining binding at 10 µM: 74%
GCN2(Kin.Dom.2.S808G)
  remaining binding at 10 µM: 12%
ACVRL1
  remaining binding at 10 µM: 91%
EGFR(E746-A750del)
  remaining binding at 10 µM: 0%
[2]
  remaining binding at 10 µM: 72%
LATS1
  remaining binding at 10 µM: 91%
STK33
  remaining binding at 10 µM: 43%
IKK-alpha
  remaining binding at 10 µM: 41%
MRCKA
  remaining binding at 10 µM: 81%
NEK7
  remaining binding at 10 µM: 78%
JNK3
  remaining binding at 10 µM: 77%
CSNK1D
  remaining binding at 10 µM: 25%
FGFR4
  remaining binding at 10 µM: 69%
TIE1
  remaining binding at 10 µM: 52%
PLK4
  remaining binding at 10 µM: 70%
STK16
  remaining binding at 10 µM: 100%
CLK2
  remaining binding at 10 µM: 64%
RET(V804M)
  remaining binding at 10 µM: 100%
[3]
  remaining binding at 10 µM: 8.9%
CHEK2
  remaining binding at 10 µM: 38%
CAMK2D
  remaining binding at 10 µM: 35%
